Test results reported in ChEMBL document CHEMBL4665869, “New thiazolopyrimidine as anticancer agents: Synthesis, biological evaluation, DNA binding, molecular modeling and ADMET study” (Bioorg Med Chem Lett, 2020).
Values after ≈ are worked out from the molar mass of the structure shown.

Columns and labels:
[1] = test system: LOX IMVI; assay: Growth inhibition of human LOX IMVI cells at 10 uM relative to control; format: functional; conditions: read-out: GI
[2] = test system: MDA-MB-468; assay: Growth inhibition of human MDA-MB-468 cells at 10 uM relative to control; format: functional; conditions: read-out: GI
[3] = test system: T47D; assay: Growth inhibition of human T47D cells at 10 uM relative to control; format: functional; conditions: read-out: GI
[4] = test system: CCRF-CEM; assay: Growth inhibition of human CCRF-CEM cells at 10 uM relative to control; format: functional; conditions: read-out: GI
[5] = test system: HL-60(TB); assay: Growth inhibition of human HL-60(TB) cells at 10 uM relative to control; format: functional; conditions: read-out: GI
[6] = test system: K562; assay: Growth inhibition of human K562 cells at 10 uM relative to control; format: functional; conditions: read-out: GI
[7] = test system: MOLT-4; assay: Growth inhibition of human MOLT-4 cells at 10 uM relative to control; format: functional; conditions: read-out: GI
[8] = test system: RPMI-8226; assay: Growth inhibition of human RPMI-8226 cells at 10 uM relative to control; format: functional; conditions: read-out: GI
[9] = test system: SR; assay: Growth inhibition of human SR cells at 10 uM relative to control; format: functional; conditions: read-out: GI
[10] = test system: A549; assay: Growth inhibition of human A549 cells at 10 uM relative to control; format: functional; conditions: read-out: GI
[11] = test system: HOP-62; assay: Growth inhibition of human HOP-62 cells at 10 uM relative to control; format: functional; conditions: read-out: GI
[12] = test system: HOP-92; assay: Growth inhibition of human HOP-92 cells at 10 uM relative to control; format: functional; conditions: read-out: GI
[13] = test system: NCI-H226; assay: Growth inhibition of human NCI-H226 cells at 10 uM relative to control; format: functional; conditions: read-out: GI
[14] = test system: NCI-H23; assay: Growth inhibition of human NCI-H23 cells at 10 uM relative to control; format: functional; conditions: read-out: GI
[15] = test system: NCI-H322M; assay: Growth inhibition of human NCI-H322M cells at 10 uM relative to control; format: functional; conditions: read-out: GI
[16] = test system: NCI-H460; assay: Growth inhibition of human NCI-H460 cells at 10 uM relative to control; format: functional; conditions: read-out: GI
[17] = test system: NCI-H522; assay: Growth inhibition of human NCI-H522 cells at 10 uM relative to control; format: functional; conditions: read-out: GI
[18] = test system: SW-620; assay: Growth inhibition of human SW-620 cells at 10 uM relative to control; format: functional; conditions: read-out: GI
[19] = test system: COLO 205; assay: Growth inhibition of human COLO 205 cells at 10 uM relative to control; format: functional; conditions: read-out: GI
[20] = test system: HCC 2998; assay: Growth inhibition of human HCC 2998 cells at 10 uM relative to control; format: functional; conditions: read-out: GI
[21] = test system: HCT-116; assay: Growth inhibition of human HCT-116 cells at 10 uM relative to control; format: functional; conditions: read-out: GI
[22] = test system: HCT-15; assay: Growth inhibition of human HCT-15 cells at 10 uM relative to control; format: functional; conditions: read-out: GI
[23] = test system: HT-29; assay: Growth inhibition of human HT-29 cells at 10 uM relative to control; format: functional; conditions: read-out: GI
[24] = test system: KM12; assay: Growth inhibition of human KM12 cells at 10 uM relative to control; format: functional; conditions: read-out: GI
[25] = test system: SF-268; assay: Growth inhibition of human SF-268 cells at 10 uM relative to control; format: functional; conditions: read-out: GI
[26] = test system: SF-295; assay: Growth inhibition of human SF-295 cells at 10 uM relative to control; format: functional; conditions: read-out: GI
[27] = test system: SF-539; assay: Growth inhibition of human SF-539 cells at 10 uM relative to control; format: functional; conditions: read-out: GI
[28] = test system: SNB-19; assay: Growth inhibition of human SNB-19 cells at 10 uM relative to control; format: functional; conditions: read-out: GI
[29] = test system: SNB-75; assay: Growth inhibition of human SNB-75 cells at 10 uM relative to control; format: functional; conditions: read-out: GI
[30] = test system: U-251; assay: Growth inhibition of human U-251 cells at 10 uM relative to control; format: functional; conditions: read-out: GI
[31] = test system: Malme-3M; assay: Growth inhibition of human Malme-3M cells at 10 uM relative to control; format: functional; conditions: read-out: GI
[32] = test system: M14; assay: Growth inhibition of human M14 cells at 10 uM relative to control; format: functional; conditions: read-out: GI
[33] = test system: MDA-MB-435; assay: Growth inhibition of human MDA-MB-435 cells at 10 uM relative to control; format: functional; conditions: read-out: GI
[34] = test system: SK-MEL-2; assay: Growth inhibition of human SK-MEL-2 cells at 10 uM relative to control; format: functional; conditions: read-out: GI
[35] = test system: SK-MEL-28; assay: Growth inhibition of human SK-MEL-28 cells at 10 uM relative to control; format: functional; conditions: read-out: GI
[36] = test system: SK-MEL-5; assay: Growth inhibition of human SK-MEL-5 cells at 10 uM relative to control; format: functional; conditions: read-out: GI
[37] = test system: UACC-257; assay: Growth inhibition of human UACC-257 cells at 10 uM relative to control; format: functional; conditions: read-out: GI
[38] = test system: UACC-62; assay: Growth inhibition of human UACC-62 cells at 10 uM relative to control; format: functional; conditions: read-out: GI
[39] = test system: IGROV-1; assay: Growth inhibition of human IGROV-1 cells at 10 uM relative to control; format: functional; conditions: read-out: GI
[40] = test system: OVCAR-4; assay: Growth inhibition of human OVCAR-4 cells at 10 uM relative to control; format: functional; conditions: read-out: GI
[41] = test system: OVCAR-5; assay: Growth inhibition of human OVCAR-5 cells at 10 uM relative to control; format: functional; conditions: read-out: GI
[42] = test system: OVCAR-8; assay: Growth inhibition of human OVCAR-8 cells at 10 uM relative to control; format: functional; conditions: read-out: GI
[43] = test system: NCI/ADR-RES; assay: Growth inhibition of human NCI/ADR-RES cells at 10 uM relative to control; format: functional; conditions: read-out: GI
[44] = test system: SK-OV-3; assay: Growth inhibition of human SK-OV-3 cells at 10 uM relative to control; format: functional; conditions: read-out: GI
[45] = test system: 786-0; assay: Growth inhibition of human 786-0 cells at 10 uM relative to control; format: functional; conditions: read-out: GI
[46] = test system: A498; assay: Growth inhibition of human A498 cells at 10 uM relative to control; format: functional; conditions: read-out: GI
[47] = test system: ACHN; assay: Growth inhibition of human ACHN cells at 10 uM relative to control; format: functional; conditions: read-out: GI
[48] = test system: CAKI-1; assay: Growth inhibition of human CAKI-1 cells at 10 uM relative to control; format: functional; conditions: read-out: GI
[49] = test system: RXF 393; assay: Growth inhibition of human RXF 393 cells at 10 uM relative to control; format: functional; conditions: read-out: GI
[50] = test system: SN12C; assay: Growth inhibition of human SN12C cells at 10 uM relative to control; format: functional; conditions: read-out: GI
[51] = test system: TK-10; assay: Growth inhibition of human TK-10 cells at 10 uM relative to control; format: functional; conditions: read-out: GI
[52] = test system: UO-31; assay: Growth inhibition of human UO-31 cells at 10 uM relative to control; format: functional; conditions: read-out: GI
[53] = test system: PC-3; assay: Growth inhibition of human PC-3 cells at 10 uM relative to control; format: functional; conditions: read-out: GI
[54] = test system: DU-145; assay: Growth inhibition of human DU-145 cells at 10 uM relative to control; format: functional; conditions: read-out: GI
[55] = test system: MCF7; assay: Growth inhibition of human MCF7 cells at 10 uM relative to control; format: functional; conditions: read-out: GI
[56] = test system: MDA-MB-231; assay: Growth inhibition of human MDA-MB-231 cells at 10 uM relative to control; format: functional; conditions: read-out: GI
[57] = test system: Hs-578T; assay: Growth inhibition of human Hs-578T cells at 10 uM relative to control; format: functional; conditions: read-out: GI
[58] = test system: BT-549; assay: Growth inhibition of human BT-549 cells at 10 uM relative to control; format: functional; conditions: read-out: GI
[59] = target: DNA; assay: Displacement of methyl green from DNA (unknown origin) assessed as DNA intercalation after 24 hrs by colorimetric assay; format: nucleic-acid assay

Molecule CC1=CN2C(=NC(/C=C/c3ccc(Cl)cc3)=CC2c2ccc(Cl)cc2)S1 (centres undefined) has an inhibition of growth at 10 µM [1] of less than 10%, an inhibition of growth at 10 µM [2] of less than 10% and an inhibition of growth at 10 µM [3] of less than 10%. It also gave an inhibition of growth at 10 µM [4] of less than 10%, an inhibition of growth at 10 µM [5] of less than 10% and an inhibition of growth at 10 µM [6] of less than 10%. It also gave an inhibition of growth at 10 µM [7] of less than 10%, an inhibition of growth at 10 µM [8] of less than 10% and an inhibition of growth at 10 µM [9] of less than 10%. It also gave an inhibition of growth at 10 µM [10] of less than 10%, an inhibition of growth at 10 µM [11] of less than 10% and an inhibition of growth at 10 µM [12] of less than 10%. For the same molecule, the inhibition of growth at 10 µM [13] was less than 10%, the inhibition of growth at 10 µM [14] was less than 10% and the inhibition of growth at 10 µM [15] was less than 10%. It also gave an inhibition of growth at 10 µM [16] of less than 10%, an inhibition of growth at 10 µM [17] of less than 10% and an inhibition of growth at 10 µM [18] of less than 10%. It also gave an inhibition of growth at 10 µM [19] of less than 10%, an inhibition of growth at 10 µM [20] of less than 10% and an inhibition of growth at 10 µM [21] of less than 10%. The inhibition of growth at 10 µM [22] was less than 10%, the inhibition of growth at 10 µM [23] was less than 10% and the inhibition of growth at 10 µM [24] was less than 10%. For the same molecule, the inhibition of growth at 10 µM [25] was less than 10%, the inhibition of growth at 10 µM [26] was less than 10% and the inhibition of growth at 10 µM [27] was less than 10%. The inhibition of growth at 10 µM [28] was less than 10%, the inhibition of growth at 10 µM [29] was 17.3% and the inhibition of growth at 10 µM [30] was less than 10%. For the same molecule, the inhibition of growth at 10 µM [31] was less than 10%, the inhibition of growth at 10 µM [32] was less than 10% and the inhibition of growth at 10 µM [33] was less than 10%. It also gave an inhibition of growth at 10 µM [34] of less than 10%, an inhibition of growth at 10 µM [35] of less than 10% and an inhibition of growth at 10 µM [36] of less than 10%. It also gave an inhibition of growth at 10 µM [37] of less than 10%, an inhibition of growth at 10 µM [38] of less than 10% and an inhibition of growth at 10 µM [39] of less than 10%. For the same molecule, the inhibition of growth at 10 µM [40] was less than 10%, the inhibition of growth at 10 µM [41] was less than 10% and the inhibition of growth at 10 µM [42] was less than 10%. For the same molecule, the inhibition of growth at 10 µM [43] was less than 10%, the inhibition of growth at 10 µM [44] was less than 10% and the inhibition of growth at 10 µM [45] was less than 10%. It also gave an inhibition of growth at 10 µM [46] of 12.3%, an inhibition of growth at 10 µM [47] of less than 10% and an inhibition of growth at 10 µM [48] of less than 10%. For the same molecule, the inhibition of growth at 10 µM [49] was less than 10%, the inhibition of growth at 10 µM [50] was less than 10% and the inhibition of growth at 10 µM [51] was less than 10%. The inhibition of growth at 10 µM [52] was less than 10%, the inhibition of growth at 10 µM [53] was less than 10% and the inhibition of growth at 10 µM [54] was less than 10%. The inhibition of growth at 10 µM [55] was less than 10%, the inhibition of growth at 10 µM [56] was less than 10% and the inhibition of growth at 10 µM [57] was less than 10%. The inhibition of growth at 10 µM [58] was less than 10% and the IC50 [59] was 45.18 µg/mL (≈ 113 µM).
